Consider two compounds from BindingDB's records for patent US20240199535 (Immunic, 2024).

The target of the experiment is Dihydroorotate dehydrogenase (quinone), mitochondrial (Homo sapiens, UniProt Q02127).
Dihydroorotate dehydrogenase (quinone), mitochondrial, sequence (Q02127 whole entry): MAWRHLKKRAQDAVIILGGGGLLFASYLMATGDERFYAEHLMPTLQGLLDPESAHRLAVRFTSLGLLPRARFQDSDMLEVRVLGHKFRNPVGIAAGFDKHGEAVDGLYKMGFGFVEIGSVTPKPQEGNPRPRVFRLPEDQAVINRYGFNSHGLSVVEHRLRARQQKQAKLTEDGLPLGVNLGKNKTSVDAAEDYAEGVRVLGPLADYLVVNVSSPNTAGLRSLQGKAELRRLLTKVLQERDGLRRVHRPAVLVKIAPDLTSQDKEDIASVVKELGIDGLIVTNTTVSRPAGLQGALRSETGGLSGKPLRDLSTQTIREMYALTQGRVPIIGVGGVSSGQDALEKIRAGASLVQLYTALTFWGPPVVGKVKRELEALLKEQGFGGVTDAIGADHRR

Method: Briefly, the hDHODH concentration was adjusted in a way that an average slope of approximately 0.2 AU/min served as the positive control (e.g. without inhibitor). The standard assay mixture contained 60 μM 2,6-dichloroindophenol, 50 μM decylubiquinone and 100 μM dihydroorotate. The hDHODH enzyme with or without at least six different concentrations of the compounds was added and measurements were performed in 50 mM TrisHCl, 150 mM KCl and 0.1% Triton X-100 at pH 8.0 and at 30° C. The reaction was started by adding dihydroorotate and measuring the absorption at 600 nm for 2 min. For the determination of the IC50 values, each data point was recorded in triplicate. For the determination of the inhibitory constant Ki, the KM values for DHO and decylubichinon were determined. Afterwards, the compounds were diluted in a dilution series depending on their IC50 values in DMSO.

The Ki is the equilibrium dissociation constant of an inhibitor or competing ligand from its target. The low end stands for tighter binding, the high end for weaker binding. `O=C(Nc1c(F)c(F)c(-c2cccc(OC(F)(F)F)c2)c(F)c1F)c1ccsc1C(=O)O` [US20240199535, Example 4] registered a Ki of 0.0037 µM.
Then `O=C(O)C1=C(C(=O)Nc2ccc(-c3cccc(OC(F)F)c3)cc2F)CCC1` [US20240199535, Example 5], with 1.82 µM.
